Literature values in patent EP3878534A1, “EXTRACTION AND BACK-EXTRACTION OF HYDROPHOBIC COMPOUNDS USING DEEP EUTECTIC SOLVENT WITH TUNEABLE HYDROPHOBICITY” (Wageningen Universiteit, priority 2020, dated 2021).

What was measured:
[1] = octanol/water, individual compound

Structure (SMILES)	Log Poct (Pub Chem) [1]	pKa
CCCCCC(=O)O [Hexanoic acid]	1.92	4.88
CC1CCC(C(C)C)C(O)C1 (racemic) [DL-Menthol, 2-isopropyl-5-methylcyclohexanol]	3.20	–
CCCCCCCC(=O)O [Octanoic acid]	3.05	–
